According to US20100048900A1, “AGENT FOR TREATMENT OF VASCULAR LEAKS” (priority 2006, published 2010):

Assays:
[1] = tested on: human endothelial cells (HUVEC cells); assay: In-vitro inhibition of the interleukin-2 (Proleukin) induced VLS: spherical deformation of HUVEC cells; format: cell-based; details: Proleukin in combination with 20 mM of substance, microscopic assessment after 4 to 6 days
Method: In-vitro examinations on the inhibition of the VLS induced by interleukin-2. Using human endothelial cells (HUVEC cells) the inhibition of the IL-2 induced VLS through ectoine and hydroxyectoine was investigated in an in-vitro system. In this context the concentrations of Proleukin® (by Chiron) were determined that lead to the spherical deformation of the HUVEC cells. The spherical deformation of HUVEC cells is considered as a sign for the triggering of the VLS, cf. Baluna et al., PNAS 3957-3962, March 1999. Same as VLS, this phenotype visible under the light microscope is based on the bonding of membrane proteins, the integrins. The cells were incubated with Proleukin solely or in combination with ectoine and hydroxyectoine. To verify the specificity of the compatible solutes also trehalose and glucose were employed additionally. After 4 to 6 days the proportion of normal and spherically deformed cells of a visual field are determined by microscopic assessment.

[2] = tested on: NK cells and T cells of healthy-blood donors; assay: Proleukin-induced interferon-γ synthesis of human lymphocytes (ELISA of supernatant); format: cell-based; details: 250 U Proleukin in combination with 20 mM hydroxyectoine, 48 hours, FIG. 2
From the text: Effects of hydroxyectoine on the Proleukin-induced interferon-γ-synthesis of human lymphocytes.
interleukin-2, IL-2, same as Proleukin leads to the activation of immune effector cells which can be determined, inter alia, by an increased interferon-γ secretion of NK cells and T-lymphocytes.
For this purpose NK cells and T cells of healthy-blood donors were isolated by means of the MACS technique (Magnetic Cell Sorting, Milteniy). The of detection of the cells expressing the surface markers CE 56, NKG2D and CD 3 was brought about by FACS analyses.
The cells without further additives have been incubated for 48 hours with 250 U Proleukin or with 250 U Proleukin in combination with 20 mM hydroxyectoine. Following this, the concentration of interferon-γ was determined in the supernatant of the cells with the aid of ELISA (triple determinations from two independent experiments).

Row | Structure (SMILES) | reduction of the Proleukin-induced VLS phenotype (spherically deformed HUVEC cells; VLS inhibition percentage, FIG. 1) [1] | inhibition of the induction of interferon-γ synthesis (concentration of interferon-γ in the supernatant) [2]
1 | CC1=N[C@H](C(=O)O)CCN1 [ectoine, (4S)-2-methyl-1,4,5,6-tetrahydropyrimidine-4-carboxylic acid] | significantly reduce the VLS phenotype | 
2 | CC1=N[C@H](C(=O)O)[C@@H](O)CN1 [hydroxyectoine, (4S,5S)-5-hydroxy-2-methyl-1,4,5,6-tetrahydropyrimidine-4-carboxylic acid] | significantly reduce the VLS phenotype | does not inhibit the induction of the interferon-γ synthesis, on the contrary slightly increased values were found
